# Assay results as given in BindingDB's records for doi:10.1021/jm950589q (Ibm Thomas J. Watson Research Center, 1996).
# pIC50: −log10 of the molar value.
# Assay: Inhibitory concentration against HIV-1 replication by interfering with virus reverse transcriptase
row,Structure (SMILES),pIC50
1,CC(C)=CCN1Cc2cc(Cl)cc3[nH]c(=S)n(c23)C[C@@H]1C,7.37
2,C=C(C)CN1Cc2cccc3[nH]c(=S)n(c23)CC1C (centres undefined),7.59
3,CC1Cn2c(=S)[nH]c3cccc(c32)CN1CC1CC1 (centres undefined),7.22
4,CC(C)=CCN1Cc2cc(Cl)cc3[nH]c(=O)n(c23)CC1C (centres undefined),6.74
5,CC(C)=CCN1Cc2cccc3[nH]c(=O)n(c23)CC1C (centres undefined),5.48
6,C=C(C)CN1Cc2cccc3[nH]c(=O)n(c23)CC1C (centres undefined),4.46
7,"CC(C)=CCN1CCn2c(=O)[nH]c3cc(Cl)cc(c32)C1C (centres undefined) [4-Chloro-6-methyl-7-(3-methyl-but-2-enyl)-6,7,8,9-tetrahydro-2H-2,7,9a-triaza-benzo[cd]azulen-1-one]",6.80
8,"CC(C)=CCN1CCn2c(=S)[nH]c3cc(Cl)cc(c32)C1C (centres undefined) [4-Chloro-6-methyl-7-(3-methyl-but-2-enyl)-6,7,8,9-tetrahydro-2H-2,7,9a-triaza-benzo[cd]azulene-1-thione]",7.64
9,"CC(C)=CCN1CCn2c(=S)[nH]c3cc(Cl)cc(c32)C1 [4-Chloro-7-(3-methyl-but-2-enyl)-6,7,8,9-tetrahydro-2H-2,7,9a-triaza-benzo[cd]azulene-1-thione]",6.80
10,"CC1Cn2c(=S)[nH]c3cc(Cl)cc(c32)CN1CC1CC1 (centres undefined) [4-Chloro-7-cyclopropylmethyl-8-methyl-6,7,8,9-tetrahydro-2H-2,7,9a-triaza-benzo[cd]azulene-1-thione]",7.47
11,"C=C(C)CN1Cc2cc(Cl)cc3[nH]c(=S)n(c23)C(C)C1 (centres undefined) [4-Chloro-9-methyl-7-(2-methyl-allyl)-6,7,8,9-tetrahydro-2H-2,7,9a-triaza-benzo[cd]azulene-1-thione]",6.17
12,"CC(C)=CCN1CCn2c(=O)[nH]c3ccc(Cl)c(c32)C1C (centres undefined) [5-Chloro-6-methyl-7-(3-methyl-but-2-enyl)-6,7,8,9-tetrahydro-2H-2,7,9a-triaza-benzo[cd]azulen-1-one]",6.84
13,"CC(C)=CCN1CCn2c(=S)[nH]c3ccc(Cl)c(c32)C1C (centres undefined) [5-Chloro-6-methyl-7-(3-methyl-but-2-enyl)-6,7,8,9-tetrahydro-2H-2,7,9a-triaza-benzo[cd]azulene-1-thione]",7.92
14,"CC(C)=CCN1CCn2c(=S)[nH]c3ccc(Cl)c(c32)C1 [5-Chloro-7-(3-methyl-but-2-enyl)-6,7,8,9-tetrahydro-2H-2,7,9a-triaza-benzo[cd]azulene-1-thione]",7.34
15,"CC(C)=CCN1Cc2c(Cl)ccc3[nH]c(=S)n(c23)C[C@@H]1C [5-Chloro-8-methyl-7-(3-methyl-but-2-enyl)-6,7,8,9-tetrahydro-2H-2,7,9a-triaza-benzo[cd]azulene-1-thione]",8.30
16,"CC(C)=CCN1CC(C)n2c(=S)[nH]c3cccc(c32)C1C (centres undefined) [6,9-Dimethyl-7-(3-methyl-but-2-enyl)-6,7,8,9-tetrahydro-2H-2,7,9a-triaza-benzo[cd]azulene-1-thione]",4.59
17,"CC(C)=CCN1CCn2c(=O)[nH]c3cccc(c32)C1C (centres undefined) [6-Methyl-7-(3-methyl-but-2-enyl)-6,7,8,9-tetrahydro-2H-2,7,9a-triaza-benzo[cd]azulen-1-one]",4.92
18,"CC(C)=CCN1CCn2c(=S)[nH]c3cccc(c32)C1C (centres undefined) [6-Methyl-7-(3-methyl-but-2-enyl)-6,7,8,9-tetrahydro-2H-2,7,9a-triaza-benzo[cd]azulene-1-thione]",7.11
19,"C=C(C)CN1Cc2cccc3[nH]c(=O)n(c23)C(CCC)C1 (centres undefined) [7-(2-Methyl-allyl)-9-propyl-6,7,8,9-tetrahydro-2H-2,7,9a-triaza-benzo[cd]azulen-1-one]",4.32

# The next lines start with the values.
row,pIC50,Structure (SMILES)
1,4.87,"CC1C(C)n2c(=S)[nH]c3cccc(c32)CN1CC1CC1 (centres undefined) [7-Cyclopropylmethyl-8,9-dimethyl-6,7,8,9-tetrahydro-2H-2,7,9a-triaza-benzo[cd]azulene-1-thione]"
2,4.25,"CC(C)=CCN1Cc2cccc3[nH]c(=O)n(c23)C(C)C1C (centres undefined) [8,9-Dimethyl-7-(3-methyl-but-2-enyl)-6,7,8,9-tetrahydro-2H-2,7,9a-triaza-benzo[cd]azulen-1-one]"
3,5.65,"CC(C)=CCN1Cc2cccc3[nH]c(=S)n(c23)C(C)C1C (centres undefined) [8,9-Dimethyl-7-(3-methyl-but-2-enyl)-6,7,8,9-tetrahydro-2H-2,7,9a-triaza-benzo[cd]azulene-1-thione]"
4,4.90,"C=C(C)CN1Cc2cccc3[nH]c(=O)n(c23)C(C(C)C)C1 (centres undefined) [9-Isopropyl-7-(2-methyl-allyl)-6,7,8,9-tetrahydro-2H-2,7,9a-triaza-benzo[cd]azulen-1-one]"
5,4.49,"C=C(C)CN1Cc2cccc3[nH]c(=O)n(c23)C(C)C1 (centres undefined) [9-Methyl-7-(2-methyl-allyl)-6,7,8,9-tetrahydro-2H-2,7,9a-triaza-benzo[cd]azulen-1-one]"
6,7.38,"CC(C)=CCN1[C@H](C)Cn2c(=S)[nH]c3cccc(c32)[C@H]1C [(6R,8R)-6,8-Dimethyl-7-(3-methyl-but-2-enyl)-6,7,8,9-tetrahydro-2H-2,7,9a-triaza-benzo[cd]azulene-1-thione]"
7,6.64,"CC(C)=CCN1[C@H](C)Cn2c(=O)[nH]c3cc(Cl)cc(c32)[C@@H]1C [(6S,8R)-4-Chloro-6,8-dimethyl-7-(3-methyl-but-2-enyl)-6,7,8,9-tetrahydro-2H-2,7,9a-triaza-benzo[cd]azulen-1-one]"
8,6.32,"CC(C)=CCN1[C@H](C)Cn2c(=S)[nH]c3cc(Cl)cc(c32)[C@@H]1C [(6S,8R)-4-Chloro-6,8-dimethyl-7-(3-methyl-but-2-enyl)-6,7,8,9-tetrahydro-2H-2,7,9a-triaza-benzo[cd]azulene-1-thione]"
9,5.94,"CC(C)=CCN1[C@H](C)Cn2c(=S)[nH]c3cccc(c32)[C@@H]1C [(6S,8R)-6,8-Dimethyl-7-(3-methyl-but-2-enyl)-6,7,8,9-tetrahydro-2H-2,7,9a-triaza-benzo[cd]azulene-1-thione]"
10,7.01,"CC(C)=CCN1Cc2cccc3[nH]c(=S)n(c23)C[C@@H]1C [(11S)-11-methyl-10-(3-methylbut-2-en-1-yl)-1,3,10-triazatricyclo[6.4.1.0^{4,13}]trideca-4(13),5,7-triene-2-thione]"
